From patent publication US9775920B2, “Use of N-(4-isopropylphenyl)-5-amino-isoindoline” (Institute of Nuclear Energy Research, Atomic Energy …, priority 2015, dated 2017)
Entries after “also recorded” stand apart in the source; their conditions may differ.

Experiments:
β-amyloid = details: stated as known; cited from earlier work
Aβ40 = Aβ40 (Homo sapiens, UniProt P05067); assay: Competition with fluorescent dye ThT for binding to Aβ40 (in-vitro assay); details: FIG. 1
Method: Competition for fluorescent binding to Aβ40: the inhibition test of competition binding to amyloid was carried out, in which 2 μM Aβ40, 1 μM amyloid fluorescent dye ThT, and 0.47 nM, 0.94 nM, 4.7 nM, 9.4 nM, 47 nM, 94 nM, 470 nM, 940 nM, 4700 nM and 9400 nM of standard compounds (PiB and BTA-1) and the compound of the present invention as the competing compounds were used. The reaction was carried out for 2 hrs at room temperature, which was excited by using Anthos Zenyth 3100 at an excitation wavelength of 485 nm, and then emitted a florescence of 535 nm. The binding rate of ThT to amyloid was set to 1 where no compound of the present invention was added to compete with ThT for binding. The PiB and BTA-1 were used as positive controls, and the binding rate of each concentration of compound was calculated according to the formula: binding rate=(fluorescence intensity with the compound of the present invention/fluorescence intensity without the compound of the present invention). The result is shown in FIG. 1, in which the horizontal axis is the concentration of the competing compound, and the longitudinal axis is the binding rate of ThT.

Aβ40, sequence (P05067 672-711 limits assumed): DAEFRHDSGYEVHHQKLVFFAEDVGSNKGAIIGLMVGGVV

| Structure (SMILES) | affinity to β-amyloid (β-amyloid) | binding rate of ThT to amyloid in competition with the compound (Aβ40; 2 μM Aβ40, 1 μM ThT, 0.47 nM to 9400 nM competing compound, 2 hrs at room temperature, excitation 485 nm, emission 535 nm) | ThT binding rate compared with PiB and BTA-1 (Aβ40; at a low concentration of competing compound) |
| --- | --- | --- | --- |
| CNc1ccc(-c2nc3ccccc3s2)cc1 [BTA-1] | high affinity | – | – |
| [11CH3]Nc1ccc(-c2nc3ccc(O)cc3s2)cc1 [PiB] | high affinity | – | – |
| CC(C)c1ccc(N2Cc3ccc(N)cc3C2)cc1 [the compound of the present invention, N-(4-isopropylphenyl)-5-amino-isoindoline] | – | can compete with the β-amyloid dye thioflavin T (ThT) for binding to amyloid; also recorded: decrease gradually with the increasing concentration of the compound of the present invention | comparable to that of other known compounds at a low concentration |
